Assays:
[1] = Mucous barrier model: ability of molecules to cross a barrier (permeable support, “SUBSTRATE” or Mus^3SUB); format: in vitro ADME; conditions: interactive barrier, mucin in the “SUBSTRATE” (Mus^3SUB); FIG. 4
Experimental: “SUBSTRATE” and Mus^3SUB with the features referred to in Example 2 were tested for the ability thereof to mimic the mucous barrier.
The charts in FIG. 4 show the ability of said molecules to cross a barrier, where the barrier consists of a permeable support, “SUBSTRATE” or Mus^3SUB.

[2] = cited from earlier work

| SMILES | transition of the drug across the barrier [1] | pKa [2] | log D7.4 ([2]; pH 7.4) |
| --- | --- | --- | --- |
| CC1=C(C(=O)O)N2C(=O)[C@@H](NC(=O)[C@H](N)c3ccccc3)[C@H]2SC1 [Cefalexin] | very quick | – | – |
| COc1cccc2c1C(=O)c1c(O)c3c(c(O)c1C2=O)C[C@@](O)(C(=O)CO)C[C@@H]3O[C@H]1C[C@H](N)[C@@H](O)[C@H](C)O1 [Epirubicin] | slowed | 8.01 | 0.03 |
